Data as given in paper PMC5464773 (eLife, 2017).

How the values were obtained:
[1] = tested on: BCR-ABL-expressing B-lineage acute lymphoblastic leukemia cells dependent on Bcl-xL; experiment: BH3 profiling, mitochondrial depolarization (JC-1) in permeabilized cells; type: cell-based; settings: BH3 profiling fits Bcl-xL, sigmoidal dose-response (variable slope), fit ambiguous
Protocol: Cell line identities were confirmed by STR profiling.
Peptides were titrated by serial dilution in MEB buffer (150 mM Mannitol, 10 mM HEPES-KOH pH 7.5, 50 mM KCl, 0.02 mM EGTA, 0.02 mM EDTA, 0.1% BSA and 5 mM Succinate) containing 20 μg/mL oligomycin, 50 μg/mL digitonin, 2 μM JC-1 and 10 mM 2-mercaptoethanol in 384-well plates. Controls for no depolarization (1% DMSO) and complete depolarization with the mitochondrial oxidative phosphorylation uncoupler FCCP (20 μM) were included for data normalization. […] 15 μL of cell suspension was added to each well containing 15 μL of treatment solution. […] To produce percent depolarization, the area under the resultant curve was calculated and normalized to the assay controls. Peptide titration curves were fit to sigmoidal dose-response curves using Graphpad PRISM seven to obtain EC50 values.

Bfl-1 = experiment: Competition fluorescence polarization (anisotropy) with fluoresceinated BIM; type: binding, human; settings: ratio of Ki values from competition FP
Protocol: Plates were mixed at 23°C for 3 hr. Plates were read again at 24 to check equilibration. Experiments were done in at least triplicate.

Substance	Bottom (best-fit value) ([1]; constraint Bottom < 5)	Top (best-fit value) ([1]; constraint Top > 78)	HillSlope (best-fit value) [1]	LogEC50 (best-fit value) ([1]; x = Log [Peptide] M)	specificity for Bfl-1 relative to Bcl-xL, Bcl-2, Bcl-w and Mcl-1 (Bfl-1)
Ac-QWIREIAAGLRRFADILNAQVER-NH2 [FS3]	~ 5	97.17	~ 8.841	~ -4.964	–
Ac-QWVREIAAGLRLAADNVNAQLER-NH2 [FS1]	–	–	–	–	at least 150 fold
